# Measured values from patent US20250320193A1, “OXOISOINDOLINYL SUBSTITUTED PIPERIDINEDIONE DERIVATIVE AND USE THEREOF” (GLUETACS THERAPEUTICS (SHANGHAI) CO., LTD., priority 2022, published 2025).
# How the values were obtained:
# [1] = molecular target: human Cereblon WT GST-tagged protein (Homo sapiens (Human), UniProt Q96SW2); experiment: CRBN-binding affinity, HTRF (CEREBLON BINDING kit, CISBIO); settings: HTRF inhibitory activity
# How it was run: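 Compounds were mixed with GST-tagged human Cereblon WT protein, then with Thalidomide-Red tracer and GST Eu antibody, and binding was read by HTRF. Inhibition rate was calculated from 620 nm emission relative to blank control wells (no protein) and solvent control wells.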
# [2] = molecular target: IKZF1 (Homo sapiens (Human), UniProt Q13422+Q96SW2); experiment: Western blot, substrate protein expression in hPBMC: IKZF1; type: cell-based; settings: hPBMC, compound 500 nM, 24 hours, Western blot
# Sequence of IKZF1 (Q13422 whole entry): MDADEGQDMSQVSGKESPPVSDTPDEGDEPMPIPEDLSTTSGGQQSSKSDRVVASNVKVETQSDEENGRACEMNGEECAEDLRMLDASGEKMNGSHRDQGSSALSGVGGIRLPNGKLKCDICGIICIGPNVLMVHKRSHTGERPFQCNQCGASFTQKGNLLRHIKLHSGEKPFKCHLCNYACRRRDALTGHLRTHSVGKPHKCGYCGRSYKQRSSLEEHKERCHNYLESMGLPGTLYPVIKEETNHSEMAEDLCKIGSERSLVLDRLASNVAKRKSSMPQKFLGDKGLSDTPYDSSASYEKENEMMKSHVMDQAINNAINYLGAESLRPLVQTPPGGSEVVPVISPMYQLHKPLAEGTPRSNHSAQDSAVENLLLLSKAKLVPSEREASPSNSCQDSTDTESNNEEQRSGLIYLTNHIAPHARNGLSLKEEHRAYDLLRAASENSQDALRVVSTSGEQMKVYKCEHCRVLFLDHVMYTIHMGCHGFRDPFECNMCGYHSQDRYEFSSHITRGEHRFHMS
# Sequence of IKZF1 (Q96SW2 whole entry): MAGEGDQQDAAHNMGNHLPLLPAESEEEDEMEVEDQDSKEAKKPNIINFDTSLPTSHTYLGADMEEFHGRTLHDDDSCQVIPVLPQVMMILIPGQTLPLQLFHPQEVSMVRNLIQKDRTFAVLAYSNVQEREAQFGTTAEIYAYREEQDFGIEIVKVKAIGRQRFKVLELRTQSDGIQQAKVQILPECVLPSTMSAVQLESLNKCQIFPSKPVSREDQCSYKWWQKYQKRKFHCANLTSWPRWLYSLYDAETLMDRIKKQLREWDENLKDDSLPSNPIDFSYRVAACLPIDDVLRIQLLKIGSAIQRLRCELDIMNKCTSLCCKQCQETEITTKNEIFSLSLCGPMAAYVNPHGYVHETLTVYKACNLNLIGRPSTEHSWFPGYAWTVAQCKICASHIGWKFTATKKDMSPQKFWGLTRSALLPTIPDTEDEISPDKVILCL
# Sequence of IKZF1 (Q16531 whole entry partner): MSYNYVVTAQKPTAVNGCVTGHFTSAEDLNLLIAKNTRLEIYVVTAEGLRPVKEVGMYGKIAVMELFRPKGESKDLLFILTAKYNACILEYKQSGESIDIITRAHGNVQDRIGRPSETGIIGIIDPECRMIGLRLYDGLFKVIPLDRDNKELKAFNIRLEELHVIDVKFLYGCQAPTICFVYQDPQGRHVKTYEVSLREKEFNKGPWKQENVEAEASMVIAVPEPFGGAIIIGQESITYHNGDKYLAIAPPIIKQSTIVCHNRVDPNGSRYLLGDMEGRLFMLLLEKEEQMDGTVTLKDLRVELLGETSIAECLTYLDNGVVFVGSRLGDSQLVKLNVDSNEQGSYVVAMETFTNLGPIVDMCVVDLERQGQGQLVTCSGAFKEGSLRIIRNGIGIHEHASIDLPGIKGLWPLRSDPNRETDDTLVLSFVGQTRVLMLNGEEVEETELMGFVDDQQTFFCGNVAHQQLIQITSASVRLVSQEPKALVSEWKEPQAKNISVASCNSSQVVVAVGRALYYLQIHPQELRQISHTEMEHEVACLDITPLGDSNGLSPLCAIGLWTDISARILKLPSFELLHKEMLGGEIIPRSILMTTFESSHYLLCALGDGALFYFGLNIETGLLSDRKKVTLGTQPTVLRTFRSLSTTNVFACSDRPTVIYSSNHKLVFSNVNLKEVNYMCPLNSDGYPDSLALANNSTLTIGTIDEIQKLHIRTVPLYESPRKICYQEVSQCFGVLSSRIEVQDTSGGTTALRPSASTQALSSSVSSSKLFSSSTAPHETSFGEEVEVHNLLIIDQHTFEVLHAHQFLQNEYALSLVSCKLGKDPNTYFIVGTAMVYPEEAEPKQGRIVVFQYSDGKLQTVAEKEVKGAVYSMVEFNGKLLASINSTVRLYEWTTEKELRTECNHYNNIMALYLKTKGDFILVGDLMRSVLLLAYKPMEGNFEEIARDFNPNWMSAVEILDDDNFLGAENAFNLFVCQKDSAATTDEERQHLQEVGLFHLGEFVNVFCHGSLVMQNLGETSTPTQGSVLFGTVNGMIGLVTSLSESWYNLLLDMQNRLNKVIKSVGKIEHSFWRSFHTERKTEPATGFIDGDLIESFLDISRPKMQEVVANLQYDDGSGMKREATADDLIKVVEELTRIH
# How it was run: (§1)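 hPBMC, 1×10^6 cells/mL, 24 h compound exposure; RIPA lysis, BCA protein assay, SDS-PAGE, NC membrane immunoblot. Densitometry vs internal control → % protein remaining; degradation % = 100% − remaining; DC50 = conc. at 50% of DMSO band signal.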
# [3] = molecular target: IKZF3 (Homo sapiens (Human), UniProt Q96SW2+Q9UKT9); experiment: Western blot, substrate protein expression in hPBMC: IKZF3; type: cell-based; settings: hPBMC, compound 500 nM, 24 hours, Western blot
# Sequence of IKZF3 (Q9UKT9 whole entry): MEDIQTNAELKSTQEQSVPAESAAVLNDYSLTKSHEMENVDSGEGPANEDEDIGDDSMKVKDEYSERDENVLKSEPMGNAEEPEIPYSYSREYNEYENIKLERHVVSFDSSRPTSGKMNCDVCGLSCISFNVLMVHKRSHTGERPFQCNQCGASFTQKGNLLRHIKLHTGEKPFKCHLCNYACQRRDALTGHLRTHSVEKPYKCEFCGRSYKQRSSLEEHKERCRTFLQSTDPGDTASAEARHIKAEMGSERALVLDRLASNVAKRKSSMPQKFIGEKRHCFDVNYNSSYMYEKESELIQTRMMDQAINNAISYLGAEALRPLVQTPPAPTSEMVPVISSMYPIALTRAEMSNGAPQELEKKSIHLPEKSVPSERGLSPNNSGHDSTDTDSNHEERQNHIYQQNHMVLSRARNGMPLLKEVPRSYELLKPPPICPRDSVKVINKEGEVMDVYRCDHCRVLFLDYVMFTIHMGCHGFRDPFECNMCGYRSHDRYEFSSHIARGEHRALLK
# Sequence of IKZF3 (Q96SW2 whole entry): as the sequence (Q96SW2 whole entry) above
# Sequence of IKZF3 (Q16531 whole entry partner): as the sequence (Q16531 whole entry partner) above
# How it was run: as §1
# [4] = molecular target: GSPT1 (Homo sapiens (Human), UniProt P15170+Q96SW2); experiment: Western blot, substrate protein expression in hPBMC: GSPT1; type: cell-based; settings: for substrate protein remaining % GSPT1: hPBMC, compound 500 nM, 24 hours, Western blot
# Sequence of GSPT1 (P15170 whole entry): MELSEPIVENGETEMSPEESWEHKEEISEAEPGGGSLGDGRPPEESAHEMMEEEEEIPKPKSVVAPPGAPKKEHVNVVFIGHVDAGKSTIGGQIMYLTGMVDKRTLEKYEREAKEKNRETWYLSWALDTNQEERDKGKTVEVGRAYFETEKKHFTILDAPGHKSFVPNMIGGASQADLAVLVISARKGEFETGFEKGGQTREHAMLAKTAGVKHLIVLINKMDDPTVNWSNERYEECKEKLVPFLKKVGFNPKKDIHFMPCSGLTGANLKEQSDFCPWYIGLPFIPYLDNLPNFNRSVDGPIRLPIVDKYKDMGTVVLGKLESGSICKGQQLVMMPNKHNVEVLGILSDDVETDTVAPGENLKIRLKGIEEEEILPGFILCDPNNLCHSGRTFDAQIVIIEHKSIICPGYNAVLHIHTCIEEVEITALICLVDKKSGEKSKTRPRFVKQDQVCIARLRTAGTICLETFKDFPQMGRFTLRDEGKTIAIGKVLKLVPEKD
# Sequence of GSPT1 (Q96SW2 whole entry): as the sequence (Q96SW2 whole entry) above
# Sequence of GSPT1 (Q16531 whole entry partner): as the sequence (Q16531 whole entry partner) above
# How it was run: as §1
# Sequence of human Cereblon WT GST-tagged protein (Q96SW2 whole entry): as the sequence (Q96SW2 whole entry) above
SMILES,IC50 [1],substrate protein remaining % IKZF1 [2],substrate protein remaining % IKZF3 [3],substrate protein remaining % GSPT1 [4],"concentration at which GSPT1 protein was clearly/significantly degraded (Western blot, FIG. 1) ([4]; hPBMCs)"
"O=C1CCC(N2Cc3c(ccc(CN4CCN(C(c5ccccn5)c5ccccn5)CC4)c3F)C2=O)C(=O)N1 (stereo not shown) [GT-05713, 3-(5-((4-(di(pyridin-2-yl)methyl)piperazin-1-yl)methyl)-4-fluoro-1-oxoisoindolin-2-yl)piperidine-2,6-dione]",0.5 to 1 µM,B (B represents substrate protein remaining % > 50%),B (B represents substrate protein remaining % > 50%),A (A represents 0% ≤ substrate protein remaining % ≤ 50%),
"O=C1CCC(N2C(=O)c3ccc(CN4CC5CCC4CN5C(c4ccccc4)c4ccccc4)cc3C2=O)C(=O)N1 (stereo not shown) [GT-05730, 5-((5-benzhydryl-2,5-diazabicyclo[2.2.2]octan-2-yl)methyl)-2-(2,6-dioxopiperidin-3-yl) isoindoline-1,3-dione]",1 to 1.9 µM,B (B represents substrate protein remaining % > 50%),B (B represents substrate protein remaining % > 50%),A (A represents 0% ≤ substrate protein remaining % ≤ 50%),
"O=C1CCC(N2Cc3cc(CN4C5CC4CN(C(c4ccccc4)c4ccccc4)C5)c(F)cc3C2=O)C(=O)N1 (stereo not shown) [GT-05737, 3-(5-((3-benzhydryl-3,6-diazabicyclo[3.1.1]heptan-6-yl)methyl)-6-fluoro-1-oxoisoindolin-2-yl)piperidine-2,6-dione]",0.5 to 1 µM,B (B represents substrate protein remaining % > 50%),B (B represents substrate protein remaining % > 50%),A (A represents 0% ≤ substrate protein remaining % ≤ 50%),
"O=C1CCC(N2Cc3cc(CN4CCCN(C(c5ccccc5)c5ccccc5)CC4)c(F)cc3C2=O)C(=O)N1 (stereo not shown) [GT-05738, 3-(5-((4-benzhydryl-1,4-diazepan-1-yl)methyl)-6-fluoro-1-oxoisoindolin-2-yl)piperidine-2,6-dione]",1 to 1.9 µM,B (B represents substrate protein remaining % > 50%),B (B represents substrate protein remaining % > 50%),A (A represents 0% ≤ substrate protein remaining % ≤ 50%),
"O=C1CCC(N2Cc3cc(CC4CCN(C(c5ccccc5)c5ccccc5)CC4)ccc3C2=O)C(=O)N1 (stereo not shown) [GT-05744, 3-(5-((1-benzhydrylpiperidin-4-yl)methyl)-1-oxoisoindolin-2-yl)piperidine-2,6-dione]",< 0.5 µM,B (B represents substrate protein remaining % > 50%),B (B represents substrate protein remaining % > 50%),A (A represents 0% ≤ substrate protein remaining % ≤ 50%),
"O=C1CCC(N2Cc3cc(C(=O)N4CCN(C(c5ccccc5)c5ccccc5)CC4)cc(F)c3C2=O)C(=O)N1 (stereo not shown) [GT-05850, 3-(5-(4-benzhydrylpiperazine-1-carbonyl)-7-fluoro-1-oxoisoindolin-2-yl)piperidine-2,6-dione]",1 to 1.9 µM,A (A represents 0% ≤ substrate protein remaining % ≤ 50%),B (B represents substrate protein remaining % > 50%),A (A represents 0% ≤ substrate protein remaining % ≤ 50%),
"O=C1CCC(N2Cc3cc(C(=O)N4CCN(C(c5ccccc5)c5ccccn5)CC4)ccc3C2=O)C(=O)N1 (stereo not shown) [GT-05854, 3-(1-oxo-5-(4-(phenyl(pyridin-2-yl)methyl)piperazine-1-carbonyl)isoindolin-2-yl)piperidine-2,6-dione]",1 to 1.9 µM,B (B represents substrate protein remaining % > 50%),B (B represents substrate protein remaining % > 50%),A (A represents 0% ≤ substrate protein remaining % ≤ 50%),
"O=C1CCC(N2Cc3cc(CN4CCC(N(c5ccccc5)c5ccccn5)CC4)cc(F)c3C2=O)C(=O)N1 (stereo not shown) [GT-05858, 3-(7-fluoro-1-oxo-5-((4-(phenyl(pyridin-2-yl)amino)piperidin-1-yl)methyl)isoindolin-2-yl)piperidine-2,6-dione]",0.5 to 1 µM,B (B represents substrate protein remaining % > 50%),B (B represents substrate protein remaining % > 50%),A (A represents 0% ≤ substrate protein remaining % ≤ 50%),below 50 nM
"O=C1CCC(N2Cc3cc(CC4CN(C(c5ccccc5)c5ccccc5)C4)ccc3C2=O)C(=O)N1 (stereo not shown) [GT-05859, 3-(5-((1-benzhydrylazetidin-3-yl)methyl)-1-oxoisoindolin-2-yl)piperidine-2,6-dione]",< 0.5 µM,A (A represents 0% ≤ substrate protein remaining % ≤ 50%),B (B represents substrate protein remaining % > 50%),A (A represents 0% ≤ substrate protein remaining % ≤ 50%),
"O=C1CCC(N2Cc3cc(C4CCN(C(c5ccccc5)c5ccccc5)CC4)ccc3C2=O)C(=O)N1 (stereo not shown) [GT-05868, 3-(5-(1-benzhydrylpiperidin-4-yl)-1-oxoisoindolin-2-yl)piperidine-2,6-dione]",0.5 to 1 µM,A (A represents 0% ≤ substrate protein remaining % ≤ 50%),A (A represents 0% ≤ substrate protein remaining % ≤ 50%),A (A represents 0% ≤ substrate protein remaining % ≤ 50%),
"O=C1CCC(N2Cc3cc(C(=O)N4CCN(C(c5ccccc5)c5ccccn5)CC4)cc(F)c3C2=O)C(=O)N1 (stereo not shown) [GT-05877, 3-(7-fluoro-1-oxo-5-(4-(phenyl(pyridin-2-yl)methyl)piperazine-1-carbonyl)isoindolin-2-yl)piperidine-2,6-dione]",1 to 1.9 µM,B (B represents substrate protein remaining % > 50%),B (B represents substrate protein remaining % > 50%),A (A represents 0% ≤ substrate protein remaining % ≤ 50%),
"O=C1CCC(N2Cc3cc(C(=O)N4CCN(C(c5ccc(F)cc5)c5ccc(F)cc5)CC4)ccc3C2=O)C(=O)N1 (stereo not shown) [GT-05881, 3-(5-(4-(bis(4-fluorophenyl)methyl)piperazine-1-carbonyl)-1-oxoisoindolin-2-yl)piperidine-2,6-dione]",0.5 to 1 µM,B (B represents substrate protein remaining % > 50%),B (B represents substrate protein remaining % > 50%),A (A represents 0% ≤ substrate protein remaining % ≤ 50%),
